This is an account of results in patent publication US7776924B2, “Nitroaniline-based alkylating agents and their use as prodrugs” (Auckland Uniservices Limited, priority 2002, dated 2010).

One series deals with WIDR. Description: Cytotoxicity in wild-type (NR−) human colon cell line WIDR. It counts as cell-based. The note with it: 18 h exposure.
A further series concerns SC3.2. Nature of the series: Cytotoxicity in NTR-transfected (NR+) human ovarian cell line SC3.2. It counts as cell-based. To be noted: for IC50: SC3.2 NTR-transfected, 18 h exposure; for Ratio = IC50(NR−)/IC50(NR+) Human Ovarian: SKOV3 / SC3.2, 18 h exposure.
The test system of a further series is WC14.10. Nature of the series: Cytotoxicity in NTR-transfected (NR+) human colon cell line WC14.10. In kind it is cell-based. To be noted: for IC50: WC14.10 NTR-transfected, 18 h exposure; for Ratio = IC50(NR−)/IC50(NR+) Human colon: WIDR / WC14.10, 18 h exposure.
The subject of another series is SKOV3. Nature of the series: Cytotoxicity in wild-type (NR−) human ovarian cell line SKOV3. It counts as cell-based.
For series [1] the following is noted: Friedlos et al., J. Med. Chem. 1997, 40, 1270; cited from earlier work.
The subject of series [2] is A549 human lung carcinoma cells. Nature of the series: Cytotoxicity in oxic and anoxic wild-type A549 human lung carcinoma cells. In kind it is cell-based. To be noted: 4 h exposure; for IC50: anoxic, read-out: IC50 WT anoxic.
In series [3] the test system is A549 transfected with human cytochrome P450 reductase (P450R). Description: Cytotoxicity in oxic and anoxic A549 cells transfected with human cytochrome P450 reductase. In kind it is cell-based. The note with it: 4 h exposure; for IC50: anoxic.

In the case of `COC(=O)CCNC(=O)c1cc([N+](=O)[O-])cc([N+](=O)[O-])c1N(CCCl)CCOS(C)(=O)=O` [IIb8, Methyl 3-{[2-((2-chloroethyl){2-[(methylsulfonyl)oxy]ethyl}amino)-3,5-dinitrobenzoyl]amino}propanoate], the melting point was 128 to 130 °C. In the series on WIDR (Homo sapiens), this compound displayed an IC50 of 4.3 µM. The compound also returned a concentration for half-maximal inhibition (IC50) in the series with SC3.2 (Homo sapiens) of 0.19 µM. Moreover, the “Ratio = IC50(NR−)/IC50(NR+) Human Ovarian” value in the series with SC3.2 stood at 51. Besides, in the series on WC14.10 (Homo sapiens), the midpoint of inhibition, the IC50, lay at 0.36 µM. Besides, the “Ratio = IC50(NR−)/IC50(NR+) Human colon” value in the series on WC14.10 stood at 13. The compound further showed an IC50 in the series on SKOV3 (Homo sapiens, SK-OV-3, 18 h exposure) of 9.7 µM.

Take `CS(=O)(=O)OCCN(CCCl)c1cc(C(N)=O)c([N+](=O)[O-])cc1[N+](=O)[O-]` [No 5, 2-[5-(aminocarbonyl)(2-chloroethyl)-2,4-dinitroanilino]ethyl methanesulfonate]: the “potency as described in the literature” value in series [1] is “not sufficiently potent for a full biological evaluation to be conducted”.

As for `CS(=O)(=O)OCCN(CCBr)c1c(C(=O)NCCO)cc([N+](=O)[O-])cc1[N+](=O)[O-]` [IIb3, 2-((2-Bromoethyl)-2-{[(2-hydroxyethyl)amino]carbonyl}-4,6-dinitroanilino)ethyl methanesulfonate], the half-maximal inhibitory concentration (IC50) in the series on WIDR came to 3.7 µM; in series [2] it was 2.3 µM; in the series with SC3.2, 0.04 µM; in the series on WC14.10 it was 0.06 µM; in series [3] it was 0.28 µM; with SKOV3 (18 h exposure), 5.2 µM. Also, the “WT Ratio = IC50(aerobic)/IC50(anoxic)” value in series [2] was 26. The “Ratio = IC50(NR−)/IC50(NR+) Human Ovarian” value with SC3.2 is 142. Moreover, the “Ratio = IC50(NR−)/IC50(NR+) Human colon” value in the series on WC14.10 worked out at 66. The “P450R ratio = IC50(aerobic)/IC50(anoxic)” value in series [3] is reported as 133.

With `CS(=O)(=O)OCCN(CCCl)c1ccc([N+](=O)[O-])c(C(=O)NCCCO)c1[N+](=O)[O-]` [IIc4, 2-((2-Chloroethyl)-3-{[(3-hydroxypropyl)amino]carbonyl}-2,4-dinitroanilino)ethyl methanesulfonate], the IC50 in the series on WIDR came to 392 µM; in series [2] it was 82 µM; with SC3.2, 1.6 µM; in the series with WC14.10 it was 2.6 µM; in series [3], 7.3 µM; in the series with SKOV3 (18 h exposure), 800 µM. The “WT Ratio = IC50(aerobic)/IC50(anoxic)” value in series [2] came to 26. The “Ratio = IC50(NR−)/IC50(NR+) Human Ovarian” value with SC3.2 is 549. Further, the “Ratio = IC50(NR−)/IC50(NR+) Human colon” value with WC14.10 worked out at 215. Besides, in series [3], the “P450R ratio = IC50(aerobic)/IC50(anoxic)” value worked out at 108.

In the case of `CS(=O)(=O)OCCN(CCBr)c1cc(C(=O)NCCO)c([N+](=O)[O-])cc1[N+](=O)[O-]` [IIa5, 2-((2-Bromoethyl)5-{[(2-hydroxyethyl)amino]carbonyl}-2,4-dinitroanilino)ethyl methanesulfonate], the half-inhibitory concentration (IC50) in the series on WIDR was determined as 192 µM; in series [2], 139 µM; in the series on SC3.2 it was 0.61 µM; in the series with WC14.10, 0.77 µM; in series [3], 73 µM; in the series with SKOV3 (18 h exposure), 286 µM. The “WT Ratio = IC50(aerobic)/IC50(anoxic)” value in series [2] was determined as 5.2. In the series on SC3.2, the “Ratio = IC50(NR−)/IC50(NR+) Human Ovarian” value is 470. The “Ratio = IC50(NR−)/IC50(NR+) Human colon” value with WC14.10 is 250. The “P450R ratio = IC50(aerobic)/IC50(anoxic)” value in series [3] is 9.9.

Broadly, the melting point is the temperature, or range, at which the solid turns liquid. What is called IC50 is the concentration that inhibits the measured activity by half.
